Experiment [1] deals with T1, human BRD4 bromodomain II (Homo sapiens, UniProt O60885).
T1 construct: human BRD4 bromodomain II [based on Genbank NM_058243, residues 349-460]; host or cells: E. coli
Briefly: Bromodomain binding assay (AlphaScreen), BRD4 BDII. The note with it: AlphaScreen assay, Table C2; read-out: BRD4 BDII IC50. The method, boiled down: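 AlphaScreen competition with biotinylated H4 peptide (aa 1-21, K5/K8/K12/K16Ac), using nickel-chelate acceptor and streptavidin donor beads. Targets were His6-BRD4 BDI (44-170) or BDII (349-460), with a 30 min compound preincubation over a 10-point 3-fold series. IC50 was fitted from percentage peptide binding.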
(In Alpha technology, singlet oxygen from a donor bead excites a nearby acceptor bead.)

The subject of experiment [2] is human SKM-1 acute myeloid leukemia cells. As to the kind of experiment: SKM-1 antiproliferation cell-based assay (ATPlite). The note with it: Homo sapiens, SKM-1, 96 h, SKM-1 antiproliferation assay, 4 days, Table C2. The method, boiled down:
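Log-phase cells in RPMI 1640/15% FBS were seeded at 34722 cells/mL and exposed for 4 days to nine-concentration DMSO serial dilutions in triplicate. Viability was read as ATP luminescence (ATPlite 1step), and IC50 values came from variable-slope non-linear regression.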

What is called IC50 is the concentration at which inhibition is half-maximal. By GI50 is commonly meant the concentration giving 50% growth inhibition. A low value points to more potent growth inhibition. Take `Cn1ccn(-c2ccc(-c3cc(F)cc(-c4cncc(N5CC[C@](C)(N)C5)c4)c3O)cc2Cl)c1=O` [Example 746, (S)-1-(3′-(5-(3-amino-3-methylpyrrolidin-1-yl)pyridin-3-yl)-3-chloro-5′-fluoro-2′-hydroxy-[1,1′-biphenyl]-4-yl)-3-methyl-1H-imidazol-2(3H)-one]: in experiment [1], the 50% inhibitory concentration (IC50) lay within 0.01 to 1 nM. Further, in experiment [2], the GI50 fell in the range of 0.3 to 30 nM.
Regarding `CC(C)N1CC2CN(c3cc(-c4cc(F)cc(-c5ccc(-n6ccn(C)c6=O)c(Cl)c5)c4O)ccn3)CC21` (stereo not drawn) [Example 747, 1-(3-chloro-5′-fluoro-2′-hydroxy-3′-(2-(6-isopropyl-3,6-diazabicyclo[3.2.0]heptan-3-yl)pyridin-4-yl)-[1,1′-biphenyl]-4-yl)-3-methyl-1H-imidazol-2(3H)-one], the concentration for half-maximal inhibition (IC50) in experiment [1] was 0.01 to 1 nM. Besides, the 50% growth inhibitory concentration (GI50) in experiment [2] was 0.3 to 30 nM.
As to `CC(C)N1CCC12CCN(c1cc(-c3cc(F)cc(-c4ccc(-n5ccn(C)c5=O)c(Cl)c4)c3O)ccn1)C2` (stereo not drawn) [Example 748, 1-(3-chloro-5′-fluoro-2′-hydroxy-3′-(2-(1-isopropyl-1,6-diazaspiro[3.4]octan-6-yl)pyridin-4-yl)-[1,1′-biphenyl]-4-yl)-3-methyl-1H-imidazol-2(3H)-one], the IC50 in experiment [1] lay in the range of 0.01 to 1 nM. The same compound displayed a GI50 in experiment [2] of 0.3 to 30 nM.
Turning to `Cn1ccn(-c2ccc(-c3cc(F)cc(-c4cccc(N5CC[C@](C)(N)C5)c4)c3O)cc2Cl)c1=O` [Example 749, (S)-1-(3″-(3-amino-3-methylpyrrolidin-1-yl)-3-chloro-5′-fluoro-2′-hydroxy-[1,1′:3′,1″-terphenyl]-4-yl)-3-methyl-1H-imidazol-2(3H)-one], in experiment [1], the concentration for half-maximal inhibition (IC50) was 1 to 10 nM. Further, the GI50 in experiment [2] is 0.3 to 30 nM.
`Cn1ccn(-c2ccc(-c3cc(F)cc(-c4ccnc(N5CCC(N)(CO)C5)c4)c3O)cc2Cl)c1=O` (stereo not drawn) [Example 750, 1-(3′-(2-(3-amino-3-(hydroxymethyl)pyrrolidin-1-yl)pyridin-4-yl)-3-chloro-5′-fluoro-2′-hydroxy-[1,1′-biphenyl]-4-yl)-3-methyl-1H-imidazol-2(3H)-one]: in experiment [1], the concentration for half-maximal inhibition (IC50) lay within 0.01 to 1 nM. Moreover, the 50% growth inhibitory concentration (GI50) in experiment [2] fell in the range of 0.3 to 30 nM.
For `CC(C)N1CCCC12CCN(c1cc(-c3cc(F)cc(-c4ccc(-n5ccn(C)c5=O)c(Cl)c4)c3O)ccn1)C2` (stereo not drawn) [Example 751, 1-(3-chloro-5′-fluoro-2′-hydroxy-3′-(2-(1-isopropyl-1,7-diazaspiro[4.4]nonan-7-yl)pyridin-4-yl)-[1,1′-biphenyl]-4-yl)-3-methyl-1H-imidazol-2(3H)-one], in that order: 1 to 10 nM and 0.3 to 30 nM.
With `CN(C)[C@@H]1CN(c2cc(-c3cc(F)cc(-c4ccc(-n5ccn(C)c5=O)c(Cl)c4)c3O)ccn2)C[C@H]1O` [Example 752, 1-(3-chloro-3′-(2-((3R,4R)-3-(dimethylamino)-4-hydroxypyrrolidin-1-yl)pyridin-4-yl)-5′-fluoro-2′-hydroxy-[1,1′-biphenyl]-4-yl)-3-methyl-1H-imidazol-2(3H)-one], the IC50 in experiment [1] lay in the range of 0.01 to 1 nM. For the same compound, the concentration for 50% growth inhibition (GI50) in experiment [2] was in the range of 0.3 to 30 nM.
For the compound `Cn1cc(-c2cc(F)cc(-c3ccc(-n4ccn(C)c4=O)c(Cl)c3)c2O)cc(N2CC[C@@](C)(N)C2)c1=O` [Example 753, (R)-3-(3-amino-3-methylpyrrolidin-1-yl)-5-(3′-chloro-5-fluoro-2-hydroxy-4′-(3-methyl-2-oxo-2,3-dihydro-1H-imidazol-1-yl)-[1,1′-biphenyl]-3-yl)-1-methylpyridin-2(1H)-one], the IC50 in experiment [1] was 0.01 to 1 nM. Moreover, the concentration for 50% growth inhibition (GI50) in experiment [2] lay within 0.3 to 30 nM.
For `Cn1ccn(-c2ccc(-c3cc(F)cc(-c4cc(F)cc(N5CCN(C(C)(C)C)CC5)c4)c3O)cc2Cl)c1=O` [Example 754, 1-(3″-(4-(tert-butyl)piperazin-1-yl)-3-chloro-5′,5″-difluoro-2′-hydroxy-[1,1′:3′,1″-terphenyl]-4-yl)-3-methyl-1H-imidazol-2(3H)-one], in that order: 0.01 to 1 nM and 0.3 to 30 nM.
On to `Cn1ccn(-c2ccc(-c3cc(F)cc(-c4ccnc(N5CC(N)C6(CC6)C5)c4)c3O)cc2Cl)c1=O` (stereo not drawn) [Example 755, 1-(3′-(2-(7-amino-5-azaspiro[2.4]heptan-5-yl)pyridin-4-yl)-3-chloro-5′-fluoro-2′-hydroxy-[1,1′-biphenyl]-4-yl)-3-methyl-1H-imidazol-2(3H)-one], for which the concentration for half-maximal inhibition (IC50) in experiment [1] is 0.01 to 1 nM. Further, in experiment [2], the GI50 lay within 0.3 to 30 nM.
With `CCc1ncc(-c2cc(F)cc(-c3ccc(-n4ccn(C)c4=O)c(Cl)c3)c2O)cc1N1CCN(C(C)C)CC1` [Example 756, 1-(3-chloro-3′-(6-ethyl-5-(4-isopropylpiperazin-1-yl)pyridin-3-yl)-5′-fluoro-2′-hydroxy-[1,1′-biphenyl]-4-yl)-3-methyl-1H-imidazol-2(3H)-one], the concentration for half-maximal inhibition (IC50) in experiment [1] is 0.01 to 1 nM. The GI50 in experiment [2] lay within 0.3 to 30 nM.
As for `Cn1ccn(-c2ccc(-c3cc(F)cc(-c4ccnc(N5CC6CCC(C5)C6(C)N)c4)c3O)cc2Cl)c1=O` (stereo not drawn) [Example 757, 1-(3′-(2-(8-amino-8-methyl-3-azabicyclo[3.2.1]octan-3-yl)pyridin-4-yl)-3-chloro-5′-fluoro-2′-hydroxy-[1,1′-biphenyl]-4-yl)-3-methyl-1H-imidazol-2(3H)-one], in experiment [1], the half-maximal inhibitory concentration (IC50) lay in the range of 0.01 to 1 nM. The concentration for 50% growth inhibition (GI50) in experiment [2] was 30 to 300 nM.
Consider `Cn1ccn(-c2ccc(-c3cc(F)cc(-c4cccc(N5CC[C@@](C)(N)C5)c4)c3O)cc2Cl)c1=O` [Example 758, (R)-1-(3″-(3-amino-3-methylpyrrolidin-1-yl)-3-chloro-5′-fluoro-2′-hydroxy-[1,1′:3′,1″-terphenyl]-4-yl)-3-methyl-1H-imidazol-2(3H)-one], for which the IC50 in experiment [1] was in the range of 0.01 to 1 nM. In experiment [2], the GI50 lay in the range of 0.3 to 30 nM.
As to `Cn1cc(-c2cc(F)cc(-c3ccc(-n4ccn(C)c4=O)c(Cl)c3)c2O)cc(N2CC[C@](C)(N)C2)c1=O` [Example 759, (S)-3-(3-amino-3-methylpyrrolidin-1-yl)-5-(3′-chloro-5-fluoro-2-hydroxy-4′-(3-methyl-2-oxo-2,3-dihydro-1H-imidazol-1-yl)-[1,1′-biphenyl]-3-yl)-1-methylpyridin-2(1H)-one], the IC50 in experiment [1] was in the range of 0.01 to 1 nM. Moreover, the GI50 in experiment [2] was 0.3 to 30 nM.
In the case of `Cn1ccn(-c2ccc(-c3cc(F)cc(-c4ccnc(N5CC[C@H](C(N)=O)C5)c4)c3O)cc2Cl)c1=O` [Example 760], the concentration for half-maximal inhibition (IC50) in experiment [1] was 0.01 to 1 nM. The compound further registered a GI50 in experiment [2] of 30 to 300 nM.
In the same order, the values of `Cn1ccn(-c2ccc(-c3cc(F)cc(-c4ccnc(N5CC[C@@H](C(N)=O)C5)c4)c3O)cc2Cl)c1=O` [Example 761, (R)-1-(4-(3′-chloro-5-fluoro-2-hydroxy-4′-(3-methyl-2-oxo-2,3-dihydro-1H-imidazol-1-yl)-[1,1′-biphenyl]-3-yl)pyridin-2-yl)pyrrolidine-3-carboxamide] are 1 to 10 nM and 30 to 300 nM.
`Cn1ccn(-c2ccc(-c3cc(F)cc(-c4ccnc(N5CCC(C)(O)CC5)c4)c3O)cc2Cl)c1=O` [Example 762, 1-(3-chloro-5′-fluoro-2′-hydroxy-3′-(2-(4-hydroxy-4-methylpiperidin-1-yl)pyridin-4-yl)-[1,1′-biphenyl]-4-yl)-3-methyl-1,3-dihydro-2H-imidazol-2-one]: the half-inhibitory concentration (IC50) in experiment [1] fell in the range of 1 to 10 nM. This compound displayed a GI50 in experiment [2] of 30 to 300 nM.
Consider `COCC(C)(C)N1CCN(c2cc(-c3cc(F)cc(-c4ccc(-n5ccn(C)c5=O)c(Cl)c4)c3O)cn(C)c2=O)CC1` [Example 763], for which the IC50 in experiment [1] was in the range of 1 to 10 nM. This compound gave a GI50 in experiment [2] of 0.3 to 30 nM.

The values are drawn from patent US20250179059A1 (The Regents of the University of California, priority 2021, published 2025).
